Consider 19 compounds from patent publication US9505728B2, “Triazolone compounds and uses thereof” (INCEPTION 2, INC., priority 2012, dated 2016).

This test has as its target T1, Human PPARα (Homo sapiens, UniProt Q07869).
T1 construct: host or cells: proprietary non-human mammalian cells
T1 sequence (Q07869 1-468): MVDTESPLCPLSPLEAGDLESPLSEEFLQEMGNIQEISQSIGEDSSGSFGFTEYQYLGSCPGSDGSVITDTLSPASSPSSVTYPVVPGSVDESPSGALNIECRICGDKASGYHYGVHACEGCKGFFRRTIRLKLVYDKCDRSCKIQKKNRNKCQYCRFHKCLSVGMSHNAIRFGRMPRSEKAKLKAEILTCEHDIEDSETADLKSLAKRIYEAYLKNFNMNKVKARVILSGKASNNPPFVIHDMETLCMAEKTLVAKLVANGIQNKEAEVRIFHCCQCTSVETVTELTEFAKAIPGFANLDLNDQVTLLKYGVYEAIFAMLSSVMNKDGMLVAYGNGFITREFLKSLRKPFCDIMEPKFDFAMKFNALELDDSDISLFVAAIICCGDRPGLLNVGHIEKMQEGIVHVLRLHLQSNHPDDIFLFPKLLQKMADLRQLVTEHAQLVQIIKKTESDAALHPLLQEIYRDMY
In words: Human PPARα Reporter Assay (luciferase). Format: cell-based. The conditions noted are these: human PPARα reporter cells, overnight incubation, antagonism; read-out: Luciferase IC50. How it is done: Human PPARα Reporter Assay
The screening of test compounds for agonist or antagonist activities against human PPARα receptors was performed using a commercial kit, Human PPARα Reporter Assay System (Indigo Biosciences, Cat. #IB00111).
This nuclear receptor assay system utilizes proprietary non-human mammalian cells engineered to provide constitutive, high-level expression of Human PPARα. Because these cells incorporate a PPARα-responsive luciferase reporter gene, quantifying expressed luciferase activity provides a sensitive surrogate measure of PPARα activity in the treated cells. The primary application of this reporter assay system is in the screening of test samples to quantify any functional activity, either agonist or antagonist, that they may exert against human PPARα.
Briefly, reporter cells are dispensed into wells of the assay plate and then immediately dosed with test compounds. Following an overnight incubation, the treatment media is discarded and Luciferase Detection Reagent (LDR) is added. The intensity of light emission from the ensuing luciferase reaction provides a sensitive measure that is directly proportional to the relative level of PPARα activation in the reporter cells.
(In general: Reporter assays use an easily measured gene product as a stand-in for the process of interest.)

Usually IC50 stands for the concentration needed to halve the response being measured.

Structures are written as SMILES.

Turning to `CCn1c(CCCc2ccc(-c3cccc(CC(=O)O)n3)cc2)nn(Cc2ccc(C(C)(C)C)cc2)c1=O` [Example 50, 2-(6-{4-[3-(1-{[4-(tert-Butyl)phenyl]methyl}-4-ethyl-5-oxo-1,2,4-triazolin-3-yl)propyl]phenyl}-2-pyridyl) acetic acid], the IC50 came to 0.568 µM.

With `CCn1c(CCCc2ccc(-c3ccc(OC)c(NS(=O)(=O)c4ccc(Cl)cc4)n3)cc2)nn(Cc2ccc(C(C)(C)C)cc2)c1=O` [Example 92, 1-{[4-(tert-Butyl)phenyl]methyl}-3-{3-[4-(6-{[(4-chlorophenyl)sulfonyl]amino}-5-methoxy(2-pyridyl))phenyl]propyl}-4-ethyl-1,2,4-triazolin-5-one], the IC50 was found to be 0.005 µM. As for `CCn1c(CCCc2ccc(-c3ccc(NC(=O)NS(=O)(=O)c4ccccc4)cn3)cc2)nn(Cc2ccc(C(C)(C)C)cc2)c1=O` [Example 160, N-((6-(4-(3-(1-(4-(tert-Butyl)benzyl)-4-ethyl-5-oxo-4,5-dihydro-1H-1,2,4-triazol-3-yl)propyl)phenyl)pyridin-3-yl)carbamoyl)benzenesulfonamide], the IC50 is 0.429 µM.

With `CCn1c(CCCc2ccc(-c3cc(OC)c(NS(=O)(=O)c4ccccc4)cn3)cc2)nn(Cc2ccc(C(C)(C)C)cc2)c1=O` [Example 112, 1-{[4-(tert-Butyl)phenyl]methyl}-4-ethyl-3-[3-(4-{4-methoxy-5-[(phenylsulfonyl)amino](2-pyridyl)}phenyl)propyl]-1,2,4-triazolin-5-one], the IC50 came to 0.816 µM.

For the compound `CCCc1ccc(S(=O)(=O)Nc2cccc(-c3ccc(CCCc4nn(Cc5ccc(C(C)(C)C)cc5)c(=O)n4CC)cc3)n2)cc1` [Example 72, 1-{[4-(tert-Butyl)phenyl]methyl}-4-ethyl-3-{3-[4-(6-{[(4-propylphenyl)sulfonyl]amino}(2-pyridyl))phenyl]propyl}-1,2,4-triazolin-5-one], the IC50 stood at 0.208 µM.

Take `CCn1c(CCCc2ccc(-c3ccc(OC)c(NS(=O)(=O)Cc4ccccc4)n3)cc2)nn(Cc2ccc(C(C)(C)C)cc2)c1=O` [Example 87, 1-{[4-(tert-Butyl)phenyl]methyl}-4-ethyl-3-{3-[4-(5-methoxy-6-{[benzylsulfonyl]amino}(2-pyridyl))phenyl]propyl}-1,2,4-triazolin-5-one]: the IC50 is 0.01 µM. Next, `CCn1c(CCCc2ccc(-c3ccc(OC)c(CC(=O)NS(=O)(=O)c4ccccc4)c3)cc2)nn(Cc2ccc(C(C)(C)C)cc2)c1=O` [Example 136, 2-(4′-(3-(1-(4-(tert-Butyl)benzyl)-4-ethyl-5-oxo-4,5-dihydro-1H-1,2,4-triazol-3-yl)propyl)-4-methoxy-[1,1′-biphenyl]-3-yl)-N-(phenylsulfonyl)acetamide]: 0.041 µM; `CCn1c(CCCc2ccc(-c3cccc(NS(=O)(=O)c4ccc(C)cc4)c3)cc2)nn(Cc2ccc(C(C)(C)C)cc2)c1=O` [Example 7, N-(4′-(3-(1-(4-(tert-Butyl)benzyl)-4-ethyl-5-oxo-4,5-dihydro-1H-1,2,4-triazol-3-yl)propyl)-[1,1′-biphenyl]-3-yl)-4-methylbenzenesulfonamide]: 0.471 µM. Next, `CCC(=O)NS(=O)(=O)Cc1cccc(-c2ccc(CCCc3nn(Cc4ccc(C(C)(C)C)cc4)c(=O)n3CC)cc2)c1` [Example 116, N-(((4′-(3-(1-(4-(tert-Butyl)benzyl)-4-ethyl-5-oxo-4,5-dihydro-1H-1,2,4-triazol-3-yl)propyl)-[1,1′-biphenyl]-3-yl)methyl)sulfonyl)propionamide]: 0.987 µM. The value for `CCn1c(CCCc2ccc(-c3cnc(NS(=O)(=O)Cc4ccccc4)cn3)cc2)nn(Cc2ccc(C(C)(C)C)cc2)c1=O` [Example 119, N-(5-(4-(3-(1-(4-(tert-Butyl)benzyl)-4-ethyl-5-oxo-4,5-dihydro-1H-1,2,4-triazol-3-yl)propyl)phenyl)pyrazin-2-yl)-1-phenylmethanesulfonamide] was 0.941 µM.

With `CCn1c(CCCc2ccc(-c3cnc(C4(F)COC4)nc3)cc2)nn(Cc2ccc(C(C)(C)C)cc2)c1=O` [Example 170, 1-(4-(tert-Butyl)benzyl)-4-ethyl-3-(3-(4-(2-(3-fluorooxetan-3-yl)pyrimidin-5-yl)phenyl)propyl)-1H-1,2,4-triazol-5(4H)-one], the IC50 stood at 0.041 µM. Next, `CCn1c(CCCc2ccc(-c3ccc4occ(C(=O)O)c4c3)cc2)nn(Cc2ccc(C(C)(C)C)cc2)c1=O` [Example 89, 5-(4-(3-(1-(4-(tert-Butyl)benzyl)-4-ethyl-5-oxo-4,5-dihydro-1H-1,2,4-triazol-3-yl)propyl)phenyl)benzofuran-3-carboxylic acid]: 0.251 µM; `CCn1c(CCCc2ccc(-c3nc(NC(=O)OC(C)(C)C)co3)cc2)nn(Cc2ccc(C(C)(C)C)cc2)c1=O` [Example 25, tert-Butyl (2-(4-(3-(1-(4-(tert-butyl)benzyl)-4-ethyl-5-oxo-4,5-dihydro-1H-1,2,4-triazol-3-yl)propyl)phenyl)oxazol-4-yl)carbamate]: 0.184 µM.

As for `CCn1c(CCCc2ccc(-c3ccc(OC)c(CC(=O)O)c3)c(OC)c2)nn(Cc2ccc(C(C)(C)C)cc2)c1=O` [Example 159, 2-(4′-(3-(1-(4-(tert-Butyl)benzyl)-4-ethyl-5-oxo-4,5-dihydro-1H-1,2,4-triazol-3-yl)propyl)-2′,4-dimethoxy-[1,1′-biphenyl]-3-yl)acetic acid], the IC50 came to 0.41 µM.

In the case of `CCn1c(CCCc2ccc(-c3cccc(NS(=O)(=O)c4ccc(-c5ccc(OC)cc5)cc4)n3)cc2)nn(Cc2ccc(C(C)(C)C)cc2)c1=O` [Example 74, 1-{[4-(tert-Butyl)phenyl]methyl}-4-ethyl-3-(3-{4-[6-({[4-(4-methoxyphenyl)phenyl]sulfonyl}amino)(2-pyridyl)]phenyl}propyl)-1,2,4-triazolin-5-one], the IC50 was found to be 0.945 µM. The value for `CCn1c(CCCc2ccc(-c3ncc(N)cc3C(F)(F)F)cc2)nn(Cc2ccc(C(C)(C)C)cc2)c1=O` [Example 156, 3-(3-{4-[5-Amino-3-(trifluoromethyl)(2-pyridyl)]phenyl}propyl)-1-{[4-(tert-butyl)phenyl]methyl}-4-ethyl-1,2,4-triazolin-5-one] was 0.684 µM; that for `CCn1c(CCCc2ccc(-c3cccc(CC(=O)O)c3)cc2)nn(Cc2ccc(C(C)(C)C)cc2)c1=O` [Example 1, 2-(4′-(3-(1-(4-(tert-Butyl)benzyl)-4-ethyl-5-oxo-4,5-dihydro-1H-1,2,4-triazol-3-yl)propyl)-[1,1′-biphenyl]-3-yl)acetic acid] was 0.095 µM; that for `CCn1c(CCCc2ccc(-c3ccc(OC)c(C4(C(=O)O)CC4)c3)cc2)nn(Cc2ccc(C(C)(C)C)cc2)c1=O` [Example 128, 1-(4′-(3-(1-(4-(tert-Butyl)benzyl)-4-ethyl-5-oxo-4,5-dihydro-1H-1,2,4-triazol-3-yl)propyl)-4-methoxy-[1,1′-biphenyl]-3-yl)cyclopropanecarboxylic acid] was 0.281 µM. The value for `CCn1c(CCCc2ccc(-c3cccc(/C=C/C(=O)O)c3)cc2)nn(Cc2ccc(C(C)(C)C)cc2)c1=O` [Example 34, 3-(4′-(3-(1-(4-(tert-Butyl)benzyl)-4-ethyl-5-oxo-4,5-dihydro-1H-1,2,4-triazol-3-yl)propyl)-[1,1′-biphenyl]-3-yl)acrylic acid] was 1.45 µM.
